PubChem BioAssay (NCI)
Several values for one entry are separate records, joined by “and”; a condition that tells them apart may be missing. Equal entries are not always repeated.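 Cultured in 96-well plates, cells were exposed to test compound for 48 hours across five concentrations. GI50 = concentration required for 50% inhibition of growth. TGI is the concentration that stops growth completely.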

Columns and labels:
Experiment in all cases: inhibition of tumour cell growth, NCI panel, 48 h
CCRF-CEM leukemia = system: CCRF-CEM leukemia
COLO 205 colon = system: COLO 205 colon
DU-145 prostate = system: DU-145 prostate
HCT-116 colon = system: HCT-116 colon
K-562 leukemia = system: K-562 leukemia
KM12 colon = system: KM12 colon
LOX IMVI melanoma = system: LOX IMVI melanoma
MOLT-4 leukemia = system: MOLT-4 leukemia
NCI-H23 lung = system: NCI-H23 lung
OVCAR-3 ovarian = system: OVCAR-3 ovarian

Structure (SMILES)	GI50 (CCRF-CEM leukemia)	TGI (CCRF-CEM leukemia)	GI50 (COLO 205 colon)	TGI (COLO 205 colon)	GI50 (DU-145 prostate)	TGI (DU-145 prostate)	GI50 (HCT-116 colon)	TGI (HCT-116 colon)	GI50 (K-562 leukemia)	TGI (K-562 leukemia) [µM]	GI50 (KM12 colon)	TGI (KM12 colon)	GI50 (LOX IMVI melanoma)	TGI (LOX IMVI melanoma)	GI50 (MOLT-4 leukemia)	TGI (MOLT-4 leukemia)	GI50 (NCI-H23 lung)	TGI (NCI-H23 lung)	GI50 (OVCAR-3 ovarian)	TGI (OVCAR-3 ovarian)
CCCCCCCCCCCCCCCC(=O)N[C@H](/C=C/[C@H](O)CCCCCCCCCCCCC)CO	> 100 µM	> 100 µM	> 100 µM	> 100 µM	> 100 µM	> 100 µM	> 100 µM	> 100 µM	> 100 µM	> 100	> 100 µM	> 100 µM	> 100 µM	> 100 µM	> 100 µM	> 100 µM	> 100 µM	> 100 µM	> 100 µM	> 100 µM
O=C1C(=O)c2ccccc2C(O)=C1CCCc1ccc(C2CCCC2)cc1	4.62 µM	30.3 µM	6.82 µM	54.3 µM	6.9 µM	54.9 µM	3.55 µM	13.2 µM	3.31 µM	10.4	5.1 µM	25.1 µM	3.16 µM	9.22 µM	3.72 µM	12.3 µM	5.19 µM	22.6 µM	4.91 µM	20.1 µM
CSc1ccc2c(c1)N(CCC1CCCCN1C)c1ccccc1S2 (stereo not drawn)	5.45 µM and 2.26 µM	21.1 µM and 27.4 µM	6.22 µM and 3.57 µM	24 µM and 13.2 µM	6.06 µM and 4.15 µM	17.9 µM and 14.2 µM	5.58 µM and 3.3 µM	19 µM and 12.9 µM	2.13 µM	4.4	6.3 µM and 4.16 µM	18.8 µM and 16.1 µM	3.44 µM and 1.78 µM	14.8 µM and 3.34 µM	3.61 µM and 3.13 µM	13.6 µM and 10 µM	10.3 µM and 8.49 µM	24 µM and 22.7 µM	10.7 µM and 4.28 µM	23.7 µM and 21.7 µM
CCOc1ccc2c(C)cc(=O)oc2c1		> 100 µM		> 100 µM		> 100 µM		> 100 µM		> 100		> 100 µM		> 100 µM		> 100 µM		> 100 µM		> 100 µM
COC(C(=O)C(O)C(C)O)C1Cc2cc3cc(OC4CC(OC5CC(O)C(O)C(C)O5)C(O)C(C)O4)c(C)c(O)c3c(O)c2C(=O)C1OC1CC(OC2CC(O)C(OC3CC(C)(O)C(O)C(C)O3)C(C)O2)C(O)C(C)O1 (stereo not drawn)	0.0112 µg/mL and 0.000853 µg/mL		0.0112 µg/mL and 0.000702 µg/mL		0.0274 µg/mL and 0.0435 µg/mL	112 µg/mL and 127 µg/mL	0.0112 µg/mL and 0.015 µg/mL		0.0112 µg/mL and 0.00232 µg/mL		0.0112 µg/mL and 0.000667 µg/mL	0.0428 µg/mL and 0.0723 µg/mL	0.00217 µg/mL	15 µg/mL	0.0112 µg/mL and 0.00269 µg/mL		0.0112 µg/mL and 0.000748 µg/mL		0.0112 µg/mL and 0.00413 µg/mL	
CCN(Cc1ccccc1Cl)c1ccc(CO)c(Cl)c1	16.6 µM	38.3 µM	5.72 µM	16.3 µM	14 µM	27.8 µM	0.131 µM	11.8 µM	1.63 µM	14.6	13.4 µM	28.7 µM	16 µM	30.5 µM	15.8 µM	38.1 µM	7.44 µM	22.6 µM	0.774 µM	4.32 µM
Clc1nc(Cl)c2c3c(sc2n1)CCCC3	17.1 µM	> 100 µM	2.75 µM	> 22.6 µM	3.71 µM	> 100 µM	3.95 µM	> 100 µM	3.77 µM	> 100	> 100 µM	> 100 µM	1.78 µM	> 100 µM	3.61 µM	> 100 µM	5.92 µM	> 100 µM	3.3 µM	> 30.4 µM
CCCCCCC/C=C/[C@H]1O[C@]2(O)C(=O)C=C3C[C@@H](O[C@@H]4O[C@H](CO)[C@@H](O)C(O)[C@@H]4O)C[C@@H]3[C@H]2C=C1C (stereo partly drawn)	1.04 µM	4.9 µM	5.56 µM	11.8 µM	3.52 µM	7.44 µM	0.95 µM	3.64 µM	1.04 µM	3.55	3.71 µM	8.65 µM	0.677 µM	1.61 µM	0.853 µM	2.51 µM	4.96 µM	13 µM	1.5 µM	5.09 µM
CC1=C(C(=O)Nc2ccc3[nH]ncc3c2)C(c2ccc(Cl)c(Cl)c2)CC(=O)N1 (stereo not drawn)	24.2 µM	> 25 µM	16.6 µM	> 25 µM	> 25 µM	> 25 µM	19.4 µM	> 25 µM	> 25 µM	> 25	> 25 µM	> 25 µM	> 22.3 µM	> 25 µM	> 22.9 µM	> 25 µM	> 25 µM	> 25 µM	> 25 µM	> 25 µM
